Experimental data as given in BindingDB's records for doi:10.1016/j.ejmech.2018.08.073 (Indian Csir-Central Drug Research Institute, 2018).

Biological target: T1, Histone deacetylase 6 (Homo sapiens, UniProt Q9UBN7)
T1 sequence (Q9UBN7 whole entry): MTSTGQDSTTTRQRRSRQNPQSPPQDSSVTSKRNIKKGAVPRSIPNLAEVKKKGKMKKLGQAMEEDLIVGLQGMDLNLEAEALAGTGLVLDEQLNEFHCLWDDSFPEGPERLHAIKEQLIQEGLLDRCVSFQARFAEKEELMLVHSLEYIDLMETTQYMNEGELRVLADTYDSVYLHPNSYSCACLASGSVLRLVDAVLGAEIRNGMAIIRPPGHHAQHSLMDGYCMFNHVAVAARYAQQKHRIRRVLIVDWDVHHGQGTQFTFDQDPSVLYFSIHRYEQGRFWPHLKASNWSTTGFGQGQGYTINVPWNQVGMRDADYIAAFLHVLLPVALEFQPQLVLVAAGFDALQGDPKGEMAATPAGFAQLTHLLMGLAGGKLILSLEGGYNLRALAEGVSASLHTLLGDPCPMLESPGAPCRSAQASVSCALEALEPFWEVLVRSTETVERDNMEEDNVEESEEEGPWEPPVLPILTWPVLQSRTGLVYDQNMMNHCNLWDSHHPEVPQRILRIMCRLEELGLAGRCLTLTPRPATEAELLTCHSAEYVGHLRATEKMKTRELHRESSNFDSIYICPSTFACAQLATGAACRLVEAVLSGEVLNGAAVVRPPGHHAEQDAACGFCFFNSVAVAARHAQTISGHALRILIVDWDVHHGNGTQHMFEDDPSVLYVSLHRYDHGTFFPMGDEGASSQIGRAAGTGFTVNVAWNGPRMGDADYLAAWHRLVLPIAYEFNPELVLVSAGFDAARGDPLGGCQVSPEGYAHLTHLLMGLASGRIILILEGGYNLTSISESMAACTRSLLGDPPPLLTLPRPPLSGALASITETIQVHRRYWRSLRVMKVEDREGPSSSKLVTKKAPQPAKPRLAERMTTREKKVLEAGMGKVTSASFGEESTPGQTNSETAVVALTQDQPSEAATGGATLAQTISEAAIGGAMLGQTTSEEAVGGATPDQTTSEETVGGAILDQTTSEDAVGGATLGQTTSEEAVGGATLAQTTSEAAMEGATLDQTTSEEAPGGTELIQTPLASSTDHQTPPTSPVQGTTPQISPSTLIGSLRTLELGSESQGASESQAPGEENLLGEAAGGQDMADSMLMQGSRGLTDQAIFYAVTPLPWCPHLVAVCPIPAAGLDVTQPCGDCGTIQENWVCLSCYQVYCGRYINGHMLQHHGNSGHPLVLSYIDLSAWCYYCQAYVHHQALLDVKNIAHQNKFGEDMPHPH
Experiment: Inhibition of recombinant full-length human N-terminal GST-tagged HDAC6 expressed in baculovirus infected Sf9 insect cells using fluorescent-labelled Arg-His-Lys-Lys(Ac) as substrate measured after 2 hrs by fluorescence assay

Compound `Cc1c(CN)c2ccccc2n1-c1ccc(C(=O)NO)cc1` has an IC50 of 1.5 nM.
